The target in the assay is Beta-3 adrenergic receptor (Homo sapiens, UniProt P13945). The assay is described as follows: Effective concentration to stimulate cAMP production in chinese hamster ovary cells expressing cloned human beta-3-adrenergic receptor. Format: functional, cell-based, Cricetulus griseus.
Beta-3 adrenergic receptor, sequence (P13945 whole entry): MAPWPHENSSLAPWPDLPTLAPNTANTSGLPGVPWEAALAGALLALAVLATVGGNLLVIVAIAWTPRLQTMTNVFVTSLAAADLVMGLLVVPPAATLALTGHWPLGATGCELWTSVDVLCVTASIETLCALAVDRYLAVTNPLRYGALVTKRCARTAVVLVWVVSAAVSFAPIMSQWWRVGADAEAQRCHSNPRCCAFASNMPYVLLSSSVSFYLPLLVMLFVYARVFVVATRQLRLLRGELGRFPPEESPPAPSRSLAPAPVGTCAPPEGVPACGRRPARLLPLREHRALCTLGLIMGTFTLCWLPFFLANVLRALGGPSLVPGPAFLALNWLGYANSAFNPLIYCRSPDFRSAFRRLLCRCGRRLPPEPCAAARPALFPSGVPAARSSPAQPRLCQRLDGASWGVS
The term EC50 denotes the concentration that produces a half-maximal response. `O=S(=O)(Nc1ccc(CCNC[C@H](O)c2ccccc2)cc1)c1ccc(Cc2nc(-c3ccc4ncccc4c3)cs2)cc1` had an EC50 of 2.7 nM.

Take `CCCCCCCCc1csc(Cc2ccc(S(=O)(=O)Nc3ccc(CCNC[C@H](O)c4ccccc4)cc3)cc2)n1`: a half-maximal response (EC50) required 10 nM.

In turn, `O=S(=O)(Nc1ccc(CCNC[C@H](O)c2ccccc2)cc1)c1ccc(Cc2nc(CCc3ccccc3)cs2)cc1` yielded a concentration for a half-maximal effect (EC50) of 33 nM.

Compound `O=S(=O)(Nc1ccc(CCNC[C@H](O)c2ccccc2)cc1)c1ccc(Cc2nc(CCC3CCCC3)cs2)cc1` came in with a concentration giving a half-maximal response (EC50) of 26 nM.

Regarding `O=S(=O)(Nc1ccc(CCNC[C@H](O)c2ccccc2)cc1)c1ccc(Cc2nc(-c3ccc(F)cc3)cs2)cc1`, the EC50 was 9.5 nM.

Take `O=S(=O)(Nc1ccc(CCNC[C@H](O)c2ccccc2)cc1)c1ccc(Cc2nc(-c3cc4ccccc4o3)cs2)cc1`: the concentration for a half-maximal effect (EC50) stood at 5 nM.

The compound `O=S(=O)(Nc1ccc(CCNC[C@H](O)c2ccccc2)cc1)c1ccc(Cc2nc(-c3ccc(F)c(F)c3)cs2)cc1` registered a concentration for a half-maximal effect (EC50) of 7.1 nM.

On to `O=S(=O)(Nc1ccc(CCNC[C@H](O)c2ccccc2)cc1)c1ccc(Cc2nc(-c3c[nH]c4ccccc34)cs2)cc1`, for which the 50% effective concentration (EC50) came out at 9.1 nM.

In turn, `O=S(=O)(Nc1ccc(CCNC[C@H](O)c2ccccc2)cc1)c1ccc(Cc2nc(Cc3ccc(F)cc3)cs2)cc1` displayed an EC50 of 6.2 nM.

On to `CC/C=C/CC/C=C/c1csc(Cc2ccc(S(=O)(=O)Nc3ccc(CCNC[C@H](O)c4ccccc4)cc3)cc2)n1`, for which the EC50 is 51 nM.

`O=S(=O)(Nc1ccc(CCNC[C@H](O)c2ccccc2)cc1)c1ccc(Cc2nc(-c3cc4ccccc4s3)cs2)cc1` returned an EC50 of 5.8 nM.

For `O=S(=O)(Nc1ccc(CCNC[C@H](O)c2ccccc2)cc1)c1ccc(Cc2nc(-c3cnc4ccccc4c3)cs2)cc1`, the EC50 was determined as 7.3 nM.

`O=S(=O)(Nc1ccc(CCNC[C@H](O)c2ccccc2)cc1)c1ccc(CCc2nc(Cc3ccc4ccccc4c3)cs2)cc1` came in with an EC50 of 12 nM.

In the case of `O=S(=O)(Nc1ccc(CCNC[C@H](O)c2ccccc2)cc1)c1ccc(Cc2nc(-c3cccnc3)cs2)cc1`, the half-maximal effective concentration (EC50) amounted to 40 nM.

Compound `CCCCCCc1ccc(-c2csc(Cc3ccc(S(=O)(=O)Nc4ccc(CCNC[C@H](O)c5ccccc5)cc4)cc3)n2)cc1` showed a half-maximal effective concentration (EC50) of 1.2 nM.

Compound `CC(C)(C)c1ccc(-c2csc(Cc3ccc(S(=O)(=O)Nc4ccc(CCNC[C@H](O)c5ccccc5)cc4)cc3)n2)cc1` gave an EC50 of 2.4 nM.

For the compound `O=S(=O)(Nc1ccc(CCNC[C@H](O)c2ccccc2)cc1)c1ccc(Cc2nc(-c3ccc(O)cc3)cs2)cc1`, the EC50 was found to be 45 nM.

`CC(=O)NCCCCCc1csc(Cc2ccc(S(=O)(=O)Nc3ccc(CCNC[C@H](O)c4ccccc4)cc3)cc2)n1` came in with a concentration giving a half-maximal response (EC50) of 50 nM.

Consider `O=S(=O)(Nc1ccc(CCNC[C@H](O)c2ccccc2)cc1)c1ccc(Cc2nc(-c3ccccn3)cs2)cc1`, for which the EC50 stood at 22 nM.

In turn, `O=S(=O)(Nc1ccc(CCNC[C@H](O)c2ccccc2)cc1)c1ccc(Cc2nc(-c3ccc4ccccc4c3)cs2)cc1` displayed an EC50 of 2 nM.

Take `CC(=O)Nc1ccc(-c2csc(Cc3ccc(S(=O)(=O)Nc4ccc(CCNC[C@H](O)c5ccccc5)cc4)cc3)n2)cc1`: the response was half-maximal at 45 nM (EC50).

As for `CCCCCCCCc1csc(CCc2ccc(S(=O)(=O)Nc3ccc(CCNC[C@H](O)c4ccccc4)cc3)cc2)n1`, the midpoint of the response, the EC50, lay at 9.8 nM.

`O=S(=O)(Nc1ccc(CCNC[C@H](O)c2ccccc2)cc1)c1ccc(Cc2nc(Cc3ccc4ccccc4c3)cs2)cc1`: a half-maximal effect (EC50) was put at 33 nM.

The values above are taken from ChEMBL document CHEMBL1139636, “QSAR analysis of thiazole benzenesulfonamide substituted 3-pyridylethanolamines as beta3-adrenergic receptor agonist” (Bioorg Med Chem Lett, 2005).
